The pIC50 is −log10 of the IC50, conventionally taken in molar units.

Data on 18 molecules can be found in ChEMBL document CHEMBL1154877, “An expeditious synthesis and anticancer activity of novel 4-(3'-indolyl)oxazoles” (Eur J Med Chem, 2010).

Type in all cases: functional, cell-based
The subject of one assay is DU-145. The assay can be described thus: Cytotoxicity against human DU145 cells after 48 hrs by MTT assay. The following applies: DU-145, 48 h. For orientation: Tetrazolium assays rely on reduction of a dye to a coloured formazan, in cell work by metabolically active cells.
The test system of a further assay is LNCaP. The assay can be described thus: Cytotoxicity against human LNCAP cells after 48 hrs by MTT assay.
The subject of a further assay is PC-3. Kind of assay: Cytotoxicity against human PC3 cells after 48 hrs by MTT assay. The note with it: PC-3, 48 h.
The next assay relates to MIA PaCa-2. Kind of assay: Cytotoxicity against human MIAPaCa2 cells after 48 hrs by MTT assay. The following applies: MIA PaCa-2, 48 h.
Assay [1] is described as follows: Cytotoxicity against human MDA231 cells after 48 hrs by MTT assay. The following applies: MDA-MB-231, 48 h.
A further assay deals with MCF7. The assay can be described thus: Cytotoxicity against human MCF7 cells after 48 hrs by MTT assay. The note with it: MCF7, 48 h.

The structures appear in SMILES notation. pIC50: −log10 of the molar value.

As for `Cn1cc(-c2coc(C3CCNCC3)n2)c2ccccc21`, the pIC50 in the assay on DU-145 is 3.43; with LNCaP, 3.40; in the assay on PC-3 it was 3.24; with MIA PaCa-2, 3.12; in assay [1] it was 3.00; with MCF7 it was 3.00.

Regarding `Cc1nc(-c2c[nH]c3ccccc23)co1`, the pIC50 with DU-145 is 3.61; with LNCaP, 3.50; in the assay with PC-3, 3.47; in the assay with MIA PaCa-2 it was 3.16; in assay [1] it was 3.00; in the assay on MCF7, 3.10.

With `COc1cc(-c2nc(-c3cn(C)c4ccccc34)co2)ccc1OCc1ccccc1`, the pIC50 with DU-145 was 3.42; in the assay on LNCaP, 3.43; with PC-3 it was 3.35; in the assay on MIA PaCa-2, 3.50; in assay [1], 3.00; with MCF7 it was 3.70.

With `COc1ccc(-c2nc(-c3c[nH]c4ccccc34)co2)cc1OC`, the pIC50 is 3.52 in the assay on DU-145; 3.56 in the assay with LNCaP; 3.45 in the assay on PC-3; 3.00 in the assay with MIA PaCa-2; 3.00 in assay [1]; 3.12 in the assay with MCF7.

As to `COc1ccc(-c2nc(-c3c[nH]c4ccccc34)co2)cc1`, the pIC50 in the assay with DU-145 is 3.78; with LNCaP, 3.29; with PC-3, 3.88; with MIA PaCa-2, 4.46; in assay [1], 3.96; with MCF7, 4.36.

As to `Cn1cc(-c2coc(-c3ccc(Cl)cc3)n2)c2ccccc21`, the pIC50 in the assay with DU-145 was 3.38; with LNCaP it was 3.42; in the assay on PC-3 it was 3.52; in the assay on MIA PaCa-2 it was 4.05; in assay [1] it was 3.10; with MCF7, 3.20.

Turning to `c1ccc2c(-c3cocn3)c[nH]c2c1`, the pIC50 in the assay on DU-145 was 4.03; with LNCaP, 3.42; with PC-3, 3.49; with MIA PaCa-2, 3.00; in assay [1], 3.00; with MCF7, 3.00.

On to `c1ccc2c(-c3coc(-c4ccncc4)n3)c[nH]c2c1`, for which the pIC50 in the assay with DU-145 was 3.75; in the assay with LNCaP, 3.62; in the assay with PC-3, 3.53; in the assay on MIA PaCa-2, 4.42; in assay [1], 3.98; in the assay with MCF7, 4.26.

Regarding `Clc1ccc(Cn2cc(-c3coc(-c4ccc(Cl)cc4)n3)c3ccccc32)cc1`, the pIC50 in the assay on DU-145 is 4.09; with LNCaP it was 3.74; in the assay with PC-3, 3.46; with MIA PaCa-2 it was 4.59; in assay [1], 3.66; in the assay with MCF7 it was 4.85.

`Fc1ccc(-c2nc(-c3c[nH]c4ccccc34)co2)cc1`: the pIC50 was 4.50 in the assay on DU-145; 4.22 with LNCaP; 4.37 in the assay with PC-3; 4.39 with MIA PaCa-2; 4.04 in assay [1]; 4.55 in the assay with MCF7.

On to `c1ccc2c(-c3coc(C4CCNCC4)n3)c[nH]c2c1`, for which the pIC50 with DU-145 was 3.42; in the assay on LNCaP it was 3.32; in the assay with PC-3, 3.39; in the assay on MIA PaCa-2, 3.64; in assay [1], 3.28; in the assay with MCF7 it was 3.53.

With `COc1cc(-c2nc(-c3c[nH]c4ccccc34)co2)ccc1O`, the pIC50 with DU-145 was 3.76; with LNCaP it was 3.35; in the assay with PC-3, 3.52; in the assay with MIA PaCa-2 it was 3.00; in assay [1], 3.00; with MCF7, 3.00.

Regarding `Clc1ccc(-c2nc(-c3c[nH]c4ccccc34)co2)cc1`, the pIC50 is 3.69 in the assay on DU-145; 3.30 in the assay with LNCaP; 3.82 in the assay with PC-3; 3.49 in the assay on MIA PaCa-2; 3.22 in assay [1]; 3.39 in the assay on MCF7.

As for `C=Cc1nc(-c2c[nH]c3ccccc23)co1`, the pIC50 was 4.22 in the assay with DU-145; 3.28 in the assay on LNCaP; 3.37 in the assay on PC-3; 4.42 in the assay with MIA PaCa-2; 3.00 in assay [1]; 3.00 with MCF7.

Regarding `c1ccc(-c2nc(-c3c[nH]c4ccccc34)co2)cc1`, the pIC50 was 3.78 in the assay with DU-145; 3.34 in the assay with LNCaP; 3.77 in the assay with PC-3; 3.95 in the assay on MIA PaCa-2; 3.77 in assay [1]; 3.88 in the assay with MCF7.

`C(=C\c1nc(-c2c[nH]c3ccccc23)co1)/c1ccccc1`: the pIC50 is 3.87 with DU-145; 3.74 in the assay on LNCaP; 3.66 in the assay on PC-3; 3.06 with MIA PaCa-2; 3.00 in assay [1]; 3.45 with MCF7.

Take `c1ccc(Cc2nc(-c3c[nH]c4ccccc34)co2)cc1`: the pIC50 with DU-145 is 3.46; in the assay with LNCaP it was 3.42; in the assay with PC-3 it was 3.43; with MIA PaCa-2, 3.00; in assay [1] it was 3.00; with MCF7, 3.00.

`Oc1ccc(-c2nc(-c3c[nH]c4ccccc34)co2)cc1`: the pIC50 with DU-145 was 3.61; in the assay on LNCaP it was 3.35; in the assay on PC-3 it was 3.42; with MIA PaCa-2, 3.00; in assay [1], 3.00; in the assay on MCF7, 3.24.
